In patent publication US10857112B2, “Small molecule inhibitors of RNA binding motif (RBM) proteins for the treatment of acute cellular injury” (University of Pittsburgh—Of the Commonwealth System of …, priority 2012, dated 2020):

How the values were obtained:
[1] = system: primary rat cortical neurons; assay: STS injury, neuronal viability and cytotoxicity
Experimental: (§1) At D.I.V. 11, ½ media was collected (conditioned media) and mixed with an equal volume fresh neurobasal media (to make the 24 hour treatment media). STS was prepared at the desired concentration in treatment media, with or without experimental drugs (AQ2S or LY294002). The remaining growth maintenance media was replaced with 100 μL, of treatment media per well of a 96-well plate (or 2 mL for a six-well plate) for 24 hours.
(§2) The LDH Cytotoxicity Assay Kit II was purchased from Abcam (Cambridge, Mass., USA). Neurons were cultured in 96-well format and subjected to STS injury ±AQ2S for 24 hours (in 100 μL, total media volume). At 23 hours maximum LDH release (positive control) was prepared by adding 10 μL, cell lysis reagent directly to a few non-injured wells (i.e., no STS or AQ2S). At the end of the 24 hour injury period, 80 μL, of media was transferred to a new 96-well plate. Plates were spun at ˜500 g for 5 minutes. 10 μL, of cell culture treatment media was added to a new black-walled plate and advanced WST detection reagent added. The mix was incubated for ˜15 minutes and absorbance measured (OD 450 nm). Fresh culture media was used as a negative control. Cytotoxicity was calculated using the standard formula: cytotoxicity %=(sample LDH−negative-control LDH)/(maximum LDH release−negative-control LDH)×100.

in vitro = settings: rat, decrease in neuronal viability, 250 nM STS alone
Experimental: as §1, §2

[2] = system: primary rat cortical neurons; assay: H2O2 injury, neuronal viability 24 h (CellTiter-Blue); settings: 40 μM H2O2
[3] = molecular target: T1, recombinant active caspase-3 (Homo sapiens, UniProt P42574); assay: In vitro cell-free caspase-3 drug screening assay (DEVD-AFC); format: biochemical
T1 construct: The reaction mixture was combined with recombinant active caspase-3 and a DEVD-AFC probe; purchased PromoKine (Heidelberg, Germany)
T1 sequence (P42574 29-175 limits assumed): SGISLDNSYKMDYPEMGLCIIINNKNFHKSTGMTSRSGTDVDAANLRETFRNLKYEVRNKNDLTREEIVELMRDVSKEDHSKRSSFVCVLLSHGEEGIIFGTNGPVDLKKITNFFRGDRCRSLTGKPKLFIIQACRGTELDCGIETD
T1 sequence (P42574 176-277 limits assumed): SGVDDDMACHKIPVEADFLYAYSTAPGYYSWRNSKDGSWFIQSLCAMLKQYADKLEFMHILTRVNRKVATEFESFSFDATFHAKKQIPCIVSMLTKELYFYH
Experimental: An in vitro caspase drug screening kit was purchased from PromoKine (Heidelberg, Germany), and used according to the manufacturer's instructions. Briefly, all drugs were dissolved in DMSO and diluted in double-distilled water to desired concentration. The reaction mixture was combined with recombinant active caspase-3 and a DEVD-AFC probe. Active caspase-3 cleaves the DEVD-recognition sequence and releases fluorescent AFC. The amount of AFC detected is a measure of caspase-3 activity. Reactions were prepared in black-walled 96-well plates, incubated at 37° C., and AFC release measured with an AFC filter (Ex: 405 nm, Em: 495-505 nM) on a GLOMax-Multi Microplate Reader (Promega).

AKT = assay: Western blot of AKT activation (pAKT473); format: cell-based, rat; settings: 50 μM; baseline and 250 nM STS 6 hours
Experimental: AKT is a key pro-survival kinase that is dysregulated by acute brain injury. Many diverse therapies used to prevent neuronal death activate AKT, including small molecules, endogenously derived survival proteins, and other non-pharmacology based treatments like therapeutic hypothermia. To further elucidate the mechanisms of AQ2S-mediated neuroprotection, the level of activated (phosphorylated) AKT was measured by western blot.
Neurons used for Western blot analysis for grown in 6-well plates. Briefly, neurons were treated with experimental compounds for the indicated time/conditions. At the end of each experiment, neurons were washed in ice cold PBS and harvested in 65 μL RIPA buffer containing protease inhibitors, phosphatase inhibitors, and EDTA. Extracts were collected in 0.5 mL tubes and sonicated for 20-30 seconds. Cell extracts were then spun at 4° C./16,000 g/10 minutes and stored at −80° C. until use. Frozen extracts were thawed on ice and protein concentration measured using the BCA assay (PIERCE). […] of sample protein was loaded per well of a 7.5% SDS precast gel (Biorad), and run for 30 minutes to 1 hour at 200 V. Kaleidoscope protein standards (Biorad) were run parallel to neuron extracts. Proteins were then transferred to PDVF membranes (run at 100 V/4° C./1.5 hours). PDVF membranes were washed once in tris buffered saline (TBS) and blocked for 1 hour in tris buffered saline/tween-20 with 7.5% nonfat milk (TBS-T/milk). Blots were incubated overnight at 4° C. with primary antibodies in TBS-T/milk. Cell Signaling Technology: phospho-AKT473, AKT Total, phospho-ERK1/2, ERK Total, cleavage caspase-3. Santa Cruz Antibodies: NF-κB p50 subunit, NF-κB p65 subunit, and beta actin. Calbiochem: 4-HNE antibody. Blots were washed 3 times (5 minutes each) with TBS, and incubated with secondary antibodies for 2 hours. Invitrogen: goat anti-rabbit or goat anti-mouse. Blots were washed 3 times (5 minutes each) with TBS, and incubated for 1 minute in HRP detection solution (Amersham). Films were exposed to blots and developed (SRX-101A, Konica Minolta Medical & Graphic Inc.). Re-probed blots (e.g. beta actin, AKT total, ERK total) were stripped in western blot stripping buffer (Fischer Scientific) for 10 minutes, washed once with TBS, re-blocked in TBS-T/milk for 1 hour, and incubated overnight with new primary antibody. Films were scanned (EPSON GT 20,000), and densitometry performed using UN-SCAN-IT software (Silk Scientific).

PI3K = settings: studies in cancer cells; cited from earlier work

For `CN[C@@H]1C[C@H]2O[C@@](C)([C@@H]1OC)n1c3ccccc3c3c4c(c5c6ccccc6n2c5c31)C(=O)NC4` [STS, staurosporine, reference compound], the “decrease in neuronal viability” value ([1]; 250 nM STS alone, 24 h) was 71.5% and the cytotoxicity at 24 h, 250 nM (in vitro) was 81.1%.

In the case of `O=C1c2c(O)cccc2C([C@@H]2O[C@H](CO)[C@@H](O)[C@H](O)[C@H]2O)c2cc(CO)cc(O)c21` (some centres unmarked) [aloin], the “neuronal death after H2O2 injury” value ([2]; post-treatment, any concentration tested, 24 hours post-injury) is reported as “ineffective at any concentration tested”.

With `Cc1cc(O)c2c(c1)C(=O)c1cc(O)cc(O)c1C2=O` [emodin, 6-methyl-1,3,8-trihydroxyanthraquinone] the “neuronal death after H2O2 injury” value ([2]; post-treatment 5 μM, 24 h) was “failed to protect neurons”, the “neuronal death after H2O2 injury” value ([2]; post-treatment 25 μM, 24 h) was “failed to protect neurons” and the “neuronal death after H2O2 injury” value ([2]; post-treatment 50 μM, 24 h) was “exacerbated cell death”. The “activity of recombinant caspase-3” value [3] was “not a direct caspase inhibitor in the cell-free assay”, the pAKT473 (AKT) was “abolished baseline and injury induced AKT activation” and the IC50 (PI3K) was 3.3 µM.

With ZVAD-fmk [reference compound] the “cell viability, comparison of neuroprotectants” value ([1]; 250 nM STS co-administered 24 hours) was “increased cell viability” and the “activity of recombinant caspase-3” value [3] was “significantly reduced the activity of recombinant caspase-3”.
